The test system of the assay is Vero 76 cells viability (cytotoxicity). In words: Vero 76 cell cytotoxicity, dose response, cytotoxicity control, set 4 (AID 623936).

For one compound, CC50 results are on record in PubChem BioAssay AID623936 (Southern Research Specialized Biocontainment Screening …, 2012).

The term CC50 denotes the concentration at which the toxic effect on the cells reaches its halfway point. For the compound `CN(C(=O)Cc1cccs1)c1nc2c(s1)CCCC2`, the CC50 is 18.5 µM.
